Measured values taken from article PMC12549899 (Nature Communications, 2025).

Experiment: Mixing of DMSO master stock into aqueous cryo-EM sample (precipitation)
Type: physicochemical
Conditions: 0.2 µL of 2.17 M DMSO stock into 40 µL DrOTOP1 sample, nominal ≤ 10.85 mM, 0.5% DMSO
Description: All protein purification steps were performed at 4 °C, and buffers were chilled on ice until use unless otherwise noted. Cell pellets were thawed in a room-temperature water bath and resuspended in Solubilization Buffer (25 mM Tris pH 8.0, 150 mM NaCl, 1% n-dodecyl-β-d-maltoside (DDM), 0.15% cholesteryl hemisuccinate (CHS), […], 1 mM phenylmethylsulfonyl Fluoride (PMSF), 2 µM pepstatin A and 2 mM dithiothreitol (DTT)) and was stirred for 1 – 3 h for detergent solubilization. The lysate was centrifuged at 40,000 × g and the supernatant was collected. […]. Next, the mixture was flowed over a gravity chromatography column, and flowthrough containing GFP-cleaved DrOTOP1 was collected and concentrated in a 100 kDa cutoff centrifugal concentrator (Amicon® Ultra or Pierce™) that was pre-equilibrated with SEC1 Buffer, to 500 µL volume. […] The resulting peaks were analyzed with sodium dodecyl sulfate-polyacrylamide gel electrophoresis (SDS-PAGE), and fractions corresponding to dimeric DrOTOP1 were pooled. […] The resulting peaks were analyzed with SDS-PAGE, and fractions corresponding to dimeric DrOTOP1 in lipid nanodisc were pooled and concentrated to 2 – 5 mg/mL with a 100 kDa cutoff centrifugal concentrator (Amicon® Ultra or Pierce™). […]

C=C(C)COc1ccccc1NC(=O)c1nc[nH]c1C [C2.2]
Solubility in aqueous buffer: visible precipitation formed
